Results as given in patent US20230365563A1, “QUINAZOLINE COMPOUND AND APPLICATION THEREOF” (SHANGHAI PHARMACEUTICALS HOLDING CO., LTD., priority 2020, published 2023).
Counter-ions that a name gives are not always drawn.

Key:
KRAS-G12D and SOS1 = biological target: T1, KRAS-G12D and SOS1 (Homo sapiens, UniProt P01116, G12D); assay: Inhibition of KRAS-G12D/SOS1 binding (Cisbio binding kit, 665/615 ratio), Effect Embodiment A; conditions: read-out: GTP-KRAS-G12D:SOS1 IC50
T1 construct: purchased
How it was run: (§1)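 Test compounds were serially diluted 3-fold from the storage solution over 11 points and dispensed in duplicate wells at 1% final DMSO.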

KRAS_G12D and cRAF = biological target: T2, KRAS_G12D and cRAF (Homo sapiens, UniProt P01116, G12D); assay: Inhibition of KRAS_G12D/cRAF binding (Cisbio binding kit, 665/615 ratio), Effect Embodiment B; conditions: read-out: GTP-KRAS-G12D:CRAF IC50
T2 construct: purchased
T2 sequence (P01116 1-188 isoform P01116-2 G12D): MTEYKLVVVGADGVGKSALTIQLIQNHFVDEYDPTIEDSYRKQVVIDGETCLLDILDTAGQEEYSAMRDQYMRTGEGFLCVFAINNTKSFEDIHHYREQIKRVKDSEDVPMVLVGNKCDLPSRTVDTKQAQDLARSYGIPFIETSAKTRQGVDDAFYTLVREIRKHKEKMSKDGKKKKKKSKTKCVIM
How it was run: as §1

KRAS_WT and SOS1 = biological target: T3, KRAS_WT and SOS1 (Homo sapiens, UniProt P01116); assay: Inhibition of KRAS_WT/SOS1 binding (Cisbio binding kit, 665/615 ratio), Effect Embodiment C; conditions: read-out: GTP-KRAS-WT:SOS1 IC50
T3 construct: purchased
T3 sequence (P01116 1-188 isoform P01116-2): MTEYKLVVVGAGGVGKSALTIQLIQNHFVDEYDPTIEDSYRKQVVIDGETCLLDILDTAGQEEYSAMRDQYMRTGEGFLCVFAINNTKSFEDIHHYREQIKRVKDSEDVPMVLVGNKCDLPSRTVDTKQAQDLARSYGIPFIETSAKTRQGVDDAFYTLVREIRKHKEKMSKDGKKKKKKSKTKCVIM
How it was run: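 Compounds tested as 3-fold, 11-point dilutions in duplicate at 1% DMSO final against the KRAS_WT/SOS1 binding system. IC50 derived by nonlinear regression fit.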

T1 sequence (P01116 1-188 isoform P01116-2 G12D): as the sequence (P01116 1-188 isoform P01116-2 G12D) above

Structure (SMILES) | IC50 (KRAS-G12D and SOS1) | IC50 (KRAS_G12D and cRAF) | IC50 (KRAS_WT and SOS1)
CN1CC(COc2nc(N3CC4CCC(C3)N4)c3cc(Cl)c(-c4cc(O)cc5ccccc45)c(F)c3n2)C1 (single isomer, unassigned) [Compound 91, 4-((S or R)-4-((1R,5S)-3,8-diazabicyclo[3.2.1]octan-3-yl)-6-chloro-8-fluoro-2-((1-methylazetidin-3-yl)methoxy)quinazolin-7-yl)naphthalen-2-ol tritrifluoroacetate] | 15.1 nM | 78.2 nM | 1100 nM
Oc1cc(-c2c(Cl)cc3c(N4CC5CCC(C4)N5)nc(OCCCN4CCNCC4)nc3c2F)c2ccccc2c1 (single isomer, unassigned) [Compound 92, 4-((S or R)-4-((1R,5S)-3,8-diazabicyclo[3.2.1]octan-3-yl)-6-chloro-8-fluoro-2-(3-(piperazin-1-yl)propoxy)quinazolin-7-yl)naphthalen-2-ol dihydrochloride] | 37.4 nM | 139 nM | 4710 nM
CNCCCOc1nc(N2CC3CCC(C2)N3)c2cc(Cl)c(-c3cc(O)cc4ccccc34)c(F)c2n1 (single isomer, unassigned) [Compound 93, 4-((S or R)-4-((1R,5S)-3,8-diazabicyclo[3.2.1]octan-3-yl)-6-chloro-8-fluoro-2-(3-(methylamino)propoxy)quinazolin-7-yl)naphthalen-2-ol dihydrochloride] | 12.3 nM | 82.1 nM | 2030 nM
NCCCOc1nc(N2CC3CCC(C2)N3)c2cc(Cl)c(-c3cc(O)cc4ccccc34)c(F)c2n1 (single isomer, unassigned) [Compound 94, 4-((S or R)-2-(3-aminopropoxy)-4-((1R,5S)-3,8-diazabicyclo[3.2.1]octan-3-yl)-6-chloro-8-fluoroquinazolin-7-yl)naphthalen-2-ol dihydrochloride] | 53.2 nM | 164 nM | 5220 nM
NCCCCOc1nc(N2CC3CCC(C2)N3)c2cc(Cl)c(-c3cc(O)cc4ccccc34)c(F)c2n1 (single isomer, unassigned) [Compound 95, 4-((S or R)-2-(4-aminobutoxy)-4-((1R,5S)-3,8-diazabicyclo[3.2.1]octan-3-yl)-6-chloro-8-fluoroquinazolin-7-yl)naphthalen-2-ol dihydrochloride] | 48.2 nM | 284 nM | 6660 nM
CN1CCCC1CCOc1nc(N2CC3CCC(C2)N3)c2cc(Cl)c(-c3cc(O)cc4ccccc34)c(F)c2n1 (single isomer, unassigned) [Compound 96a, 4-((S or R)-4-((1R,5S)-3,8-diazabicyclo[3.2.1]octan-3-yl)-6-chloro-8-fluoro-2-(2-((S or R)-1-methylpyrrolidin-2-yl)ethoxy)quinazolin-7-yl)naphthalen-2-ol] | 22 nM | 88.5 nM | 1540 nM
CN1CCCC1CCOc1nc(N2CC3CCC(C2)N3)c2cc(Cl)c(-c3cc(O)cc4ccccc34)c(F)c2n1 (single isomer, unassigned) [Compound 96b, 4-((S or R)-4-((1R,5S)-3,8-diazabicyclo[3.2.1]octan-3-yl)-6-chloro-8-fluoro-2-(2-((R or S)-1-methylpyrrolidin-2-yl)ethoxy)quinazolin-7-yl)naphthalen-2-ol] | 34.3 nM | 156 nM | 2970 nM
Oc1cc(-c2c(Cl)cc3c(N4CC5CCC(C4)N5)nc(OCC4(CN5CCCC5)CC4)nc3c2F)c2ccccc2c1 (single isomer, unassigned) [Compound 97, 4-((S or R)-4-((1R,5S)-3,8-diazabicyclo[3.2.1]octan-3-yl)-6-chloro-8-fluoro-2-((1-(pyrrolidin-1-ylmethyl)cyclopropyl)methoxy)quinazolin-7-yl)naphthalen-2-ol] | 18.9 nM | 15.6 nM | 291 nM
